From a melting point compilation (Tetko et al.; mined from patent text by program, amines drawn as free bases though some values may be those of a salt)

Row | SMILES | melting point [°C]
1 | O=C(Nc1ccc(-n2nc(C(F)(F)F)cc2C(F)(F)F)cc1)c1ccc(-n2cccc2)cc1 | 249 to 252
2 | COc1ccc(N2CCN(CCC3OCCc4cc(C(N)=O)ccc43)CC2)cc1 (stereo not given) | 180 to 182
3 | N#CC(OC(=O)CC=Cc1ccccc1)c1ccc2ccccc2c1 (stereo not given) | 74 to 75
4 | O=C(C1CCCCC1)N1CC(=O)N2CCOc3ccccc3C2C1 (stereo not given) | 92 to 93
5 | CCCCCCc1ccc(N2C=CC(=C=C3C(C#N)C(=C(C#N)C#N)OC3(C)C)C=C2)cc1 (stereo not given) | 193
6 | Cc1ccc2c(c1)CNCC2c1ccc(O)c(O)c1 (stereo not given) | 192 to 195
7 | CC(=O)NC1C(C)(C)c2ccc(CCN3CCN(c4nsc5ccccc45)CC3)cc2C1(C)C (stereo not given) | 75 to 80
8 | COc1cccc([C@H]2O[C@H](CC(=O)NCc3ccoc3C(=O)O)C(=O)N(CC(C)(C)CO)c3ccc(Cl)cc32)c1OC | 125 to 128
9 | CSc1c(C)nc(C(C)C)nc1O | 156
10 | O=C(O)CCc1cc2nc(Cl)ccc2n1S(=O)(=O)c1ccc2ncsc2c1 | 248
11 | CC(C)(C)OC(=O)C(C1NC(C(=O)O)C2(CCSCC2)S1)N1C(=O)c2ccccc2C1=O (stereo not given) | 210 to 212
12 | COCOc1c(C(C)(C)C)cc(C=[N+]([O-])C(C)(C)C)cc1C(C)(C)C | 202 to 206
13 | CCCCCCCCCCCCCCCCCCS(=O)(=O)c1ccc(C)cc1 | 79 to 80
14 | CSc1ccc(CCC(C)=NO)cc1 | 71
15 | CCOC(=O)C1=C2NCCN2CCC1 | 89
16 | Clc1nc2cc(Br)c(Br)c(Br)c2[nH]1 | 263 to 266
17 | O=C(O)CN1C(=O)C(=CC2CC=CCC2)SC1=S (stereo not given) | 191 to 193
18 | O=c1ccn(-c2cc3[nH]c(=O)c(=O)[nH]c3cc2[N+](=O)[O-])cc1F | > 300
19 | Cc1noc(NC(=O)N2CCN(c3ccnc(-c4ccc(F)cc4F)c3)CC2)c1C | 234 to 235
20 | CC(=NO)c1ncc(C)nc1C | 85 to 89
21 | O=C(OCCl)n1c(-c2cscn2)nc2ccccc21 | 143 to 144
22 | COc1cc2c(cc1O)C(Cc1cc(Cl)ccc1[N+](=O)[O-])N(C)CC2 (stereo not given) | 123 to 126
23 | CCOc1cscc1C=O | 42 to 45
24 | N#CC(=Cc1cccnc1)c1ccc(Cl)cc1 | 141 to 143
25 | CC(C)c1cccc(S(=O)(=O)n2c(CCCC(=O)O)cc3cc(C(F)(F)F)ccc32)c1 | 160

Row | SMILES | melting point [°C]
26 | COC(=O)C(=O)c1ccc(OCCOc2ccccc2F)cc1 | 112 to 113
27 | CC(C)C(Nc1ccc(C(F)(F)F)cc1)C(N)=O (stereo not given) | 93 to 94
28 | COC(=O)Cc1ccccc1NC(=S)NCN | 149 to 150
29 | CCS(=O)CC(=C1NCCCS1)[N+](=O)[O-] (stereo not given) | 102 to 104
30 | O=c1[nH]c2ccccc2n1CCN1CCN(c2ccc(O)c(C(F)(F)F)c2)CC1 | > 250
31 | CC(C)OC1(C(=O)O)C=C(Cl)C=C(Cl)C1 (stereo not given) | 140 to 141
32 | COc1cc(OC)c(/C=C/S(=O)(=O)Cc2ccc(OC)c(N)c2)c(OC)c1 | 148 to 150
33 | COc1cc(Cl)ccc1C(C)=O | 55
34 | C=CCOc1nc(N)c2ccccc2n1 | 105 to 110
35 | NC(=O)c1nnn(Cc2ccc(Cl)c(C(=O)c3ccc(Cl)cc3)c2)c1N | 189 to 192
36 | CCCCc1ccc(-c2ccc(CCc3ccc(OC)cc3)cc2)c(F)c1 | 49
37 | CCC(Cc1ccccc1)(NC(=O)CN)c1ccccc1 (stereo not given) | 108 to 110
38 | CSc1cc(C)nc(SC)c1NC(=O)CCCCCSc1nc2ncccc2o1 | 132 to 133
39 | O=C1c2ccccc2C(=O)N1OCc1cc(=O)c(OCc2ccccc2)co1 | 172
40 | Cn1cc(-c2ccccc2)c(=O)c(-c2cccc(OC(F)(F)C(F)F)c2)c1 | 119 to 121
41 | Cc1cc(N(C)C)ccc1-c1c(O)c(=O)c1=O | > 114
42 | CCn1cc(C(=O)O)c(=O)c2cc(Cl)c(N(C)C)cc21 | 210
43 | COc1cc(Nc2nc3cccc(-c4ccc(CNC(C)=O)cc4)c3o2)cc(OC)c1OC | 237 to 239
44 | CSc1nc(NCc2ccc(-c3ccsc3)cc2)n2ncc(C(C)C)c2n1 | 141 to 143
45 | O=c1c2cccc(O)c2nc(-c2ccc(O)cc2)n1-c1ccc(OCCCl)cc1 | 274 to 276
46 | ON=CCCc1ccccc1 | 85 to 93
47 | CCCC(=O)Nc1n[nH]c2cc(Cl)c(-c3ccc(CC)cc3)cc12 | 240
48 | Cc1ccc(S(=O)(=O)n2cc(Br)c(C)c2C=O)cc1 | 152 to 155
49 | O=C(O)CCSC(SCCC(=O)O)c1cccc(CCc2ccc3ccc(Cl)cc3n2)c1 | 160 to 161
50 | Clc1cnc2c(COCn3cncn3)c(Cl)ccc2c1 | 156 to 158

Row | SMILES | melting point [°C]
51 | O=c1[nH]c2ccccc2n1-c1ccc(Cl)cc1Cl | 213 to 216
52 | CS(=O)(=O)c1ccc(C(CC2CCCC2)C(N)=O)cc1Br (stereo not given) | 60 to 63
53 | CCOC(=O)c1cn(Cc2ccccc2)nc1OCc1cccc(OCc2nc(-c3ccccc3)oc2C)c1 | 95 to 96
54 | Cc1ccc(S(=O)(=O)OCC2COc3ccc4nocc4c3O2)cc1 (stereo not given) | 109 to 110
55 | CCOC(=O)C1=C(COCCN2CCN(c3nc(N)n(C)n3)CC2)NC(C)=C(C(=O)OC)C1c1ccccc1Cl (stereo not given) | 92 to 96
56 | CC(CCN(C)c1ccc(Cl)cc1)NCC(O)c1ccc(O)c(C(N)=O)c1 (stereo not given) | 127 to 129
57 | O=C(c1cccs1)c1cnn2c(-c3cccc(-c4ccn(CCN5CCCC5)n4)c3)ccnc12 | 63
58 | O=C(Nc1ccc2cc(CN3CCCCC3)ccc2c1)c1ccc(-c2ccc(F)cc2)nc1 | 218 to 219
59 | COc1nc(-c2ccccc2Cl)c2ccsc2n1 | 172 to 174
60 | OC[C@H]1O[C@H]1c1ccsc1 (racemic) | 63 to 65
61 | CCOC(Cc1ccc(NCCc2ccc(OS(C)(=O)=O)cc2)cc1)C(=O)O (stereo not given) | 130 to 134
62 | CC(C)(C)c1cc(C(C)(CC(=O)O)c2ccc(O)c(C(C)(C)C)c2)ccc1O | 156
63 | C=C1CCC(c2ccc(N3CC(COC)OC3=O)cc2)CC1 (racemic) | 63 to 65
64 | CCCCCCCCCCCCCCCCc1cc2c(s1)-n1c(C)nnc1CN=C2c1ccccc1Cl | 58 to 60
65 | c1ncn(-c2cc3cc[nH]c3cn2)n1 | 203 to 205
66 | NC(=O)c1c(N)sc2c1CCC1(C2)OCCO1 | 157 to 158
67 | O=C1CCCCN1c1ccc(I)cc1 | 108 to 110
68 | CNc1ccc(C=CC(=O)c2ccc(NC)cc2)cc1 | 150 to 151
69 | OCC1COC2(CC(c3ccccc3)SC(c3ccccc3)C2)O1 (stereo not given) | 116 to 118
70 | CCSc1cc2c(cc1SCC)C(=O)c1c(c(Cl)c3cc(SCC)c(SCC)cc3c1Cl)C2=O | > 260
71 | CCOC(=O)c1cnc2sccc2c1Cl | 71 to 72
72 | CCN1c2ccccc2NC(=O)c2cccnc21 | 210 to 220
73 | CCOC(=O)N[C@@H]1[C@H](O)C(=O)N2[C@H](c3ccccc3)OC[C@@H]12 | 176 to 178
74 | CCCCCC(C)C(C)c1cc(O)c2c(c1)OC(C)(C)C1=C2CN(CC(=O)NC(=O)NC)CC1 (stereo not given) | 145 to 147
75 | O=C(O)C(CC1CCCC1)c1ccc(Cl)c([N+](=O)[O-])c1 (stereo not given) | 112 to 115
